Data on 6 molecules can be found in PMC10856265, “Penisimplicins A and B: Novel Polyketide–Peptide Hybrid Alkaloids from the Fungus Penicillium simplicissimum JXCC5” (Molecules, 2024).

Usually IC50 stands for the concentration that inhibits the measured activity by half.

One experiment deals with acetylcholinesterase. Particulars: cited from earlier work; for IC50: read-out: anti-acetylcholinesterase activity IC50.
The test system of experiment [1] is murine monocytic RAW264.7 macrophage cells. In words: Anti-inflammatory assay: NO production by the Griess method. The conditions noted are these: LPS (0.5 µg/mL)-stimulated RAW264.7 cells, NO content. It is filed as cell-based. The protocol: The content of NO was determined by the Griess method. Briefly, the murine monocytic RAW264.7 macrophage cells in logarithmic growth phase were diluted to 1 × 10^5 cells/mL. Then, 100 µL of cell dilution was seeded into the 96-well plates and incubated overnight at 37 °C in a humid atmosphere with 5% CO2 for 24 h. The test compound and lipopolysaccharides (LPS) (Sigma) (0.5 µg/mL) were then added to each well and incubated for another 18 h. Then, 50 µL of cells culture supernatant was taken, 50 µL of the Griess reagent (reagent A and reagent B, Sigma) was added in triplicate, and NO production was evaluated in each well. After 5 min of incubation, the absorbances of samples were measured at 570 nm with Envision multilabel plate reader, and the corresponding contents were calculated by curve calibration.

Experiment [2] addresses T1, Acetylcholinesterase (AChE) (Homo sapiens, UniProt P22303).
T1 construct: purchased Sigma-Aldrich
In words: biochemical. Particulars: Ellman method, pH 8.0, 37 °C, absorbance at 405 nm; read-out: acetylcholinesterase inhibitory activity IC50. Background: DTNB colorimetry detects thiols as they appear.
Experimental: Acetylcholinesterase (AChE, Sigma-Aldrich, Saint Louis, MO, USA, 0.1 U/mL), acetylthiocholine iodide, dithiobisnitrobenzoic acid (DTNB), and tacrine were bought from Sigma-Aldrich.
The AChE inhibitory activity was evaluated based on the protocol developed by Ellman et al. [33]. The enzymatic reactions were conducted in 96-well microplates. The following were added to each well: 110 μL phosphate buffer (pH 8.0), 40 μL AChE, and the tested compounds (dissolved in 10 μL DMSO). The microplates were then incubated in 37 °C for 20 min. […] Then, the absorbance at 405 nm was detected after 1 h. Seven different concentrations and three replications per concentration for each compound were tested.

T1 sequence (P22303 32-614, species assumed): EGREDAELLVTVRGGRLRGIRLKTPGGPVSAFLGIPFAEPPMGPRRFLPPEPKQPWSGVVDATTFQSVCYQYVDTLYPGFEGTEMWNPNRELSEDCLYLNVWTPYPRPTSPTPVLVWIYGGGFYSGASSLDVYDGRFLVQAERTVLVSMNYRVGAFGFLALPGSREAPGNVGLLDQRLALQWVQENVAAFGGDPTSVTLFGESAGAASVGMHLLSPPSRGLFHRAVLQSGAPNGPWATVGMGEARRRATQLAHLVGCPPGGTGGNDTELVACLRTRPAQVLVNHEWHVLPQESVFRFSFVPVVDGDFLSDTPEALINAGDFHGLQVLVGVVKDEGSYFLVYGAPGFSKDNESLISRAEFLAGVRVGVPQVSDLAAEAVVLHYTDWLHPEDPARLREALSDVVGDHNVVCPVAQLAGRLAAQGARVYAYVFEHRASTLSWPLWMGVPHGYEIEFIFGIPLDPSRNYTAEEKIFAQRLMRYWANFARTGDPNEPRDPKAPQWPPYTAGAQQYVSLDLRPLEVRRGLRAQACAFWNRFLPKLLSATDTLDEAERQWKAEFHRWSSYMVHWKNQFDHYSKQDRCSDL

On to `COC(C)(C)C(O)CCC(C)=CCOc1c2ccoc2cc2oc(=O)ccc12` (stereo not shown) [6′-hydroxy-7′-methoxybergamottin], for which the IC50 on acetylcholinesterase is 13.2 µM.
Regarding `C=C1CCC[C@@]2(C)C[C@@]3([C@@]45C[C@]6(C)CCCC(=C)[C@H]6CC4=C(C)C(=O)O5)OC(=O)C(C)=C3C[C@H]12` [biatractylolide], the “anti-acetylcholinesterase activity IC50” value at acetylcholinesterase is 6.5458 µg/mL.
With `CCCCC[C@@H]1Cc2cc(O)c(C(=O)O)c(O)c2[C@@H](c2[nH]c3ccccc3c2CC(=O)OC)O1` [Compound 1, Penisimplicin A], the “bioactivity in a panel of biological activity assays, including anti-inflammatory activity” value in experiment [1] is recorded as “devoid of any bioactivities”. In experiment [2], the half-inhibitory concentration (IC50) came to 6.35 µM.
In the case of `CC(C)=CCOc1c2ccoc2cc2oc(=O)ccc12` [isoimperatorin], the IC50 at acetylcholinesterase is 23.1 µM.
As to `CCCCCC(O)Cc1cc(O)c(C(=O)O)c(O)c1C1CCC2C(=O)NC(CC(C)C)C(=O)N21` (stereo not shown) [Compound 2, Penisimplicin B], the “bioactivity in a panel of biological activity assays, including anti-inflammatory activity” value in experiment [1] was “devoid of any bioactivities”.
Turning to `COC1=CC(=O)c2c(O)c3c(c(-c4c(OC)cc5c(c4O)C(=O)c4c(O)cc(C)cc4C5=O)c2C1=O)C[C@@H](C)O[C@H]3C` [floribundiquinone B], the “anti-acetylcholinesterase activity IC50” value at acetylcholinesterase was 5.95 µg/mL.
